For 24 molecules, surface tension liquid-gas results are on record in the NIST ThermoML archive (doi:10.1021/je500205z).

The conditions of data set [1]: Maximal bubble pressure.
The nature of data set [2]: an = ratio of the nth substance listed. The conditions noted are these: 293.15 K, Maximal bubble pressure.

Molecules are shown by their SMILES. ± gives the expanded uncertainty stated by the source.

Consider `C=Cn1cc[n+](C(C)C(=O)OCC)c1.[Cl-]` (configuration not stated), for which the surface tension liquid-gas was 66.75 ± 0.77 mN/m in data set [1] (293.15 K); 63.9 ± 0.74 mN/m in data set [1] (298.15 K); 61.18 ± 0.71 mN/m in data set [1] (303.15 K); 58.46 ± 0.68 mN/m in data set [1] (308.15 K); 55.89 ± 0.65 mN/m in data set [1] (313.15 K); 53.02 ± 0.62 mN/m in data set [1] (318.15 K). Further, the surface tension liquid-gas in data set [1] (323.15 K) is on record as 50.55 ± 0.59 mN/m; in data set [1] (328.15 K), 48.14 ± 0.57 mN/m; in data set [1] (333.15 K) it was 45.54 ± 0.54 mN/m.
As for `C=C[n+]1ccn(CCCCCCCCCC)c1.[Br-]` [1-decyl-3-ethenylimidazolium bromide], the surface tension liquid-gas was found to be 53.48 ± 0.63 mN/m in data set [1] (293.15 K); 50.63 ± 0.6 mN/m in data set [1] (298.15 K); 47.76 ± 0.56 mN/m in data set [1] (303.15 K); 44.56 ± 0.53 mN/m in data set [1] (308.15 K); 41.8 ± 0.5 mN/m in data set [1] (313.15 K); 39.03 ± 0.47 mN/m in data set [1] (318.15 K). In addition, the surface tension liquid-gas in data set [1] (323.15 K) is recorded as 36.2 ± 0.44 mN/m; in data set [1] (328.15 K), 33.77 ± 0.41 mN/m; in data set [1] (333.15 K), 32.04 ± 0.39 mN/m.
Take `C=C[n+]1ccn(CCCCCCCCCC)c1.[Br-]` [1-decyl-3-ethenylimidazolium bromide] + CC(C)=O: the surface tension liquid-gas in data set [2] (a1 = 0.5403) was 23.39 ± 0.38 mN/m.
For the molecule `C=C[n+]1ccn(CCCCCCCCCC)c1.[Br-]` [1-decyl-3-ethenylimidazolium bromide] + CCO, the surface tension liquid-gas in data set [2] (a1 = 1.255) was 22.27 ± 0.36 mN/m.
Regarding `C=C[n+]1ccn(CCCCCCCCCC)c1.[Br-]` [1-decyl-3-ethenylimidazolium bromide] + ClC(Cl)Cl, the surface tension liquid-gas in data set [2] (a1 = 0.7667) is given as 27 ± 0.43 mN/m.
In the case of `C=C[n+]1ccn(CCCCCCCCCC)c1.[Br-]` [1-decyl-3-ethenylimidazolium bromide] + O, in data set [2] (a1 = 3.263), the surface tension liquid-gas came out at 35.27 ± 0.37 mN/m.
In the case of `C=C[n+]1ccn(CCCCCCCCCC)c1.[Br-]` [1-decyl-3-ethenylimidazolium bromide] + c1ccccc1, the surface tension liquid-gas in data set [2] (a1 = 0.1035) stood at 29.08 ± 0.46 mN/m.
`C=Cn1cc[n+](CCCCCCCC)c1.[Br-]` [1-ethenyl-3-octylimidazolium bromide]: the surface tension liquid-gas in data set [1] (293.15 K) is recorded as 59.74 ± 0.7 mN/m; in data set [1] (298.15 K) it was 56.82 ± 0.66 mN/m; in data set [1] (303.15 K) it was 54.04 ± 0.63 mN/m; in data set [1] (308.15 K), 51.22 ± 0.6 mN/m; in data set [1] (313.15 K) it was 48.55 ± 0.57 mN/m; in data set [1] (318.15 K) it was 45.79 ± 0.54 mN/m. Further, the surface tension liquid-gas in data set [1] (323.15 K) came to 43.18 ± 0.51 mN/m; in data set [1] (328.15 K), 40.6 ± 0.49 mN/m; in data set [1] (333.15 K), 38.24 ± 0.46 mN/m.
As for `C=Cn1cc[n+](CCCCCCCC)c1.[Br-]` [1-ethenyl-3-octylimidazolium bromide] + CC(C)=O, the surface tension liquid-gas in data set [2] (a1 = 0.5788) stood at 23.94 ± 0.39 mN/m.
As to `C=Cn1cc[n+](CCCCCCCC)c1.[Br-]` [1-ethenyl-3-octylimidazolium bromide] + CCO, in data set [2] (a1 = 1.497), the surface tension liquid-gas turned out to be 23.07 ± 0.37 mN/m.
Turning to `C=Cn1cc[n+](CCCCCCCC)c1.[Br-]` [1-ethenyl-3-octylimidazolium bromide] + ClC(Cl)Cl, the surface tension liquid-gas in data set [2] (a1 = 0.6921) stood at 27.79 ± 0.44 mN/m.
Take `C=Cn1cc[n+](CCCCCCCC)c1.[Br-]` [1-ethenyl-3-octylimidazolium bromide] + O: in data set [2] (a1 = 4.059), the surface tension liquid-gas is 38.86 ± 0.4 mN/m.
With `C=Cn1cc[n+](CCCCCCCC)c1.[Br-]` [1-ethenyl-3-octylimidazolium bromide] + c1ccccc1, the surface tension liquid-gas in data set [2] (a1 = 0.08467) is on record as 29.32 ± 0.46 mN/m.
As for `C=Cn1cc[n+](CCCCC)c1.[Br-]` [1-ethenyl-3-pentylimidazolium bromide], the surface tension liquid-gas was 67.08 ± 0.78 mN/m in data set [1] (303.15 K); 64.11 ± 0.74 mN/m in data set [1] (308.15 K); 61.08 ± 0.71 mN/m in data set [1] (313.15 K); 58.28 ± 0.68 mN/m in data set [1] (318.15 K); 55.53 ± 0.65 mN/m in data set [1] (323.15 K); 53.24 ± 0.62 mN/m in data set [1] (328.15 K). Besides, in data set [1] (333.15 K), the surface tension liquid-gas was 50.59 ± 0.59 mN/m.
For `C=Cn1cc[n+](CCCCCC)c1.[Br-]` [3-hexyl-1-vinyl-1H-imidazol-3-ium bromide], the surface tension liquid-gas in data set [1] (293.15 K) is listed as 62.29 ± 0.72 mN/m; in data set [1] (298.15 K), 59.52 ± 0.69 mN/m; in data set [1] (303.15 K), 56.81 ± 0.66 mN/m; in data set [1] (308.15 K), 53.95 ± 0.63 mN/m; in data set [1] (313.15 K) it was 51.15 ± 0.6 mN/m; in data set [1] (318.15 K), 48.44 ± 0.57 mN/m. Further, the surface tension liquid-gas in data set [1] (323.15 K) stood at 45.67 ± 0.54 mN/m; in data set [1] (328.15 K), 43.01 ± 0.51 mN/m; in data set [1] (333.15 K), 40.4 ± 0.48 mN/m.
For the molecule `C=Cn1cc[n+](CCCCCC)c1.[Br-]` [3-hexyl-1-vinyl-1H-imidazol-3-ium bromide] + CC(C)=O, the surface tension liquid-gas in data set [2] (a1 = 0.6455) amounted to 24.3 ± 0.39 mN/m.
With `C=Cn1cc[n+](CCCCCC)c1.[Br-]` [3-hexyl-1-vinyl-1H-imidazol-3-ium bromide] + CCO, the surface tension liquid-gas in data set [2] (a1 = 1.744) was found to be 25.16 ± 0.4 mN/m.
Regarding `C=Cn1cc[n+](CCCCCC)c1.[Br-]` [3-hexyl-1-vinyl-1H-imidazol-3-ium bromide] + ClC(Cl)Cl, the surface tension liquid-gas in data set [2] (a1 = 0.5682) is reported as 27.94 ± 0.44 mN/m.
For `C=Cn1cc[n+](CCCCCC)c1.[Br-]` [3-hexyl-1-vinyl-1H-imidazol-3-ium bromide] + O, the surface tension liquid-gas in data set [2] (a1 = 5.388) is 46.87 ± 0.46 mN/m.
For the molecule `C=Cn1cc[n+](CCCCCC)c1.[Br-]` [3-hexyl-1-vinyl-1H-imidazol-3-ium bromide] + c1ccccc1, the surface tension liquid-gas in data set [2] (a1 = 0.02207) came to 29.6 ± 0.46 mN/m.
As to `CC(C)=O` [acetone], in data set [1] (293.15 K), the surface tension liquid-gas is 23.7 ± 0.43 mN/m.
On to `c1ccccc1` [benzene], for which the surface tension liquid-gas in data set [1] (293.15 K) is reported as 28.18 ± 0.5 mN/m.
As to `CCO` [ethanol], the surface tension liquid-gas in data set [1] (293.15 K) came to 22.27 ± 0.41 mN/m.
In the case of `ClC(Cl)Cl` [trichloromethane], the surface tension liquid-gas in data set [1] (293.15 K) came to 27.14 ± 0.48 mN/m.

The surface tension liquid-gas is the work needed to enlarge the surface of a liquid by unit area.
